Data: US20250281491A1, “DUAL FUNCTIONING IMMUNE MODULATING COMPOUNDS, FORMULATIONS, AND USES THEREOF” (THE REGENTS OF THE UNIVERSITY OF MICHIGAN, priority 2022, published 2025)

Columns and labels:
STING = STING activation in THP-1 ISG Blue cells (QUANTI-Blue, OD 655); assay type: cell-based; details: 24 hours, FIG. 1
Experimental: FIG. 1 is a graph of STING activation for different concentrations of compounds as determined by incubating with THP-1 ISG Blue cells for 24 hours, mixing with ‘QUANTI-Blue’ solution and measuring OD 655.
FIG. 2 is a graph of STING activation for different concentrations of DMA01-166 as determined by incubating with THP-1 ISG Blue cells for 24 hours, mixing with ‘QUANTI-Blue’ solution and measuring OD 655.
FIG. 3 is a graph of STING activation for different concentrations of MSA-2 as determined by incubating with THP-1 ISG Blue cells for 24 hours, mixing with ‘QUANTI-Blue’ solution and measuring OD 655.
THP-1 ISG Blue cells analysis is a standard assay to test STING activation in vitro. […] Different concentrations of DMA01-166 (FIG. 2) and MSA-2 (FIG. 3) were incubated with THP-1 ISG Blue cells for 24 hours.

[1] = tested on: mouse bone marrow derived dendritic cells (BMDCs); assay: mIFNβ secretion from BMDCs by ELISA; assay type: cell-based; details: 24 hours; for mIFNβ secretion: BMDC supernatants, 10 μM, FIG. 6
Experimental: FIG. 7 a graph of mIFNβ concentrations as measured by ELISA from the supernatants of mouse bone marrow derived dendritic cells (BMDCs) incubated with different concentrations of DMA01-166 for 24 hours.
STING activation in BMDC results in mIFNβ secretion. […] Different concentrations of DMA01-166 (FIG. 7) were incubated with BMDC cells for 24 hours.

[2] = tested on: M2 polarized RAW264.7 cells; assay: M1 macrophage ratio (CD80 and CD86, flow cytometry) from M2 polarized RAW264.7 cells; assay type: cell-based; details: 2 days; for M1 macrophage percentage among all the macrophages: 10 μM, FIG. 9
Experimental: FIG. 10 is a graph of M1 macrophage ratio as determined by measuring CD80 and CD86 as markers for M1 macrophage by flow cytometry from M2 polarized RAW264.7 cells incubated with different concentrations of DMA01-166 for 2 days.
Macrophage polarization effects of the dual functioning NCEs were further tested by first inducing RAW264.7 cells to M2 macrophage, and then treating with different drugs to test the M1 macrophage percentage among all the macrophages.

[3] = tested on: M2 polarized RAW264.7 cells; assay: TNFα secretion from M2 polarized RAW264.7 cells by ELISA (macrophage polarization); details: 10 μM, 2 days, vs M2 control group, FIG. 8
[4] = tested on: mouse bone marrow derived dendritic cells (BMDCs); assay: BMDC activation, upregulation of CD80 and CD86 by flow cytometry; assay type: cell-based; details: 24 hours
Experimental: FIG. 5 are graphs of BMDC activation as measured based on the upregulation of CD80 and CD86 by flow cytometry for different concentrations of DMA01-166 incubated with mouse bone marrow derived dendritic cells (BMDCs) for 24 hours.
STING activation induces BMDC activation. To test the ability of DMA01-166 in activating BMDC, BMDCs activation was measured based on the upregulation of CD80 and CD86 by flow cytometry. […] Different concentrations of DMA01-166 were incubated with BMDC cells for 24 hours.

PI3Kα = molecular target: T1, PI3Kα (Homo sapiens, UniProt P42336); assay: PI3K inhibition assay (BPS Bioscience kit, ADP-Glo luminescence); assay type: biochemical; details: for IC50: purified enzyme
T1 construct: purchased BPS Bioscience (San Diego, CA, USA)
Experimental: (§1) The IC50 of compounds to inhibit different PI3K isoforms were calculated using Prism 8.
(§2) PI3Kα, PI3K β, PI3Kγ, and PI3Kδ binding assay kits were obtained from BPS Bioscience (San Diego, CA, USA). The assays were conducted according to manufacturer's protocols in 96-well microplates. Briefly, 5 μL PI3K lipid substrate was added to all wells. […] 10 μL of PI3Ka (0.5 ng/μL, PI3K β 4 ng/μL, PI3Kγ 4 ng/μL, or PI3Kδ 13 ng/μL) was added to initiate reaction. The plate was carefully shaken, and the reaction mixture was incubated at 30° C. for 40 minutes. Then 25 μL ADP-Glo reagent (Promega, Madison, WI, USA) was added to each well and the reactions were performed in darkness for 45 minutes. Finally, 50 μL of kinase detection reagent (Promega, Madison, WI, USA) was added to each well and the reactions were performed in darkness for 30 minutes. The luminescence of the reaction mixture was read on a Synergy 2 microplate reader (Biotek).

PI3K β = molecular target: T2, PI3K β (Homo sapiens, UniProt P42338); assay: as above; assay type: biochemical; details: for IC50: purified enzyme
T2 construct: purchased BPS Bioscience (San Diego, CA, USA)
Experimental: as §1, §2

PI3Kγ = molecular target: T3, PI3Kγ (Homo sapiens, UniProt P48736); assay: as above; assay type: biochemical; details: for IC50: purified enzyme
T3 construct: purchased BPS Bioscience (San Diego, CA, USA)
Experimental: as §1, §2

PI3Kδ = molecular target: T4, PI3Kδ (Homo sapiens, UniProt O00329); assay: as above; assay type: biochemical; details: for IC50: purified enzyme
T4 construct: purchased BPS Bioscience (San Diego, CA, USA)
Experimental: as §1, §2

[5] = tested on: KPC transgenic pancreatic cancer model; assay: In vivo efficacy on KPC transgenic pancreatic cancer model; details: FIG. 13
Experimental: FIG. 13 is a graph of the in vivo efficacy on KPC transgenic pancreatic cancer model of an exemplary albumin nanoformulations of: DMA01-166 (D166) and DMA01-166 plus PD-1 antibody (D166+PD-1) with and without paclitaxel (Nano-P).
The in vivo efficacy of DMA01-166 and its albumin nanoformulation was tested on KPC transgenic model.

T2 sequence (P42338 whole entry): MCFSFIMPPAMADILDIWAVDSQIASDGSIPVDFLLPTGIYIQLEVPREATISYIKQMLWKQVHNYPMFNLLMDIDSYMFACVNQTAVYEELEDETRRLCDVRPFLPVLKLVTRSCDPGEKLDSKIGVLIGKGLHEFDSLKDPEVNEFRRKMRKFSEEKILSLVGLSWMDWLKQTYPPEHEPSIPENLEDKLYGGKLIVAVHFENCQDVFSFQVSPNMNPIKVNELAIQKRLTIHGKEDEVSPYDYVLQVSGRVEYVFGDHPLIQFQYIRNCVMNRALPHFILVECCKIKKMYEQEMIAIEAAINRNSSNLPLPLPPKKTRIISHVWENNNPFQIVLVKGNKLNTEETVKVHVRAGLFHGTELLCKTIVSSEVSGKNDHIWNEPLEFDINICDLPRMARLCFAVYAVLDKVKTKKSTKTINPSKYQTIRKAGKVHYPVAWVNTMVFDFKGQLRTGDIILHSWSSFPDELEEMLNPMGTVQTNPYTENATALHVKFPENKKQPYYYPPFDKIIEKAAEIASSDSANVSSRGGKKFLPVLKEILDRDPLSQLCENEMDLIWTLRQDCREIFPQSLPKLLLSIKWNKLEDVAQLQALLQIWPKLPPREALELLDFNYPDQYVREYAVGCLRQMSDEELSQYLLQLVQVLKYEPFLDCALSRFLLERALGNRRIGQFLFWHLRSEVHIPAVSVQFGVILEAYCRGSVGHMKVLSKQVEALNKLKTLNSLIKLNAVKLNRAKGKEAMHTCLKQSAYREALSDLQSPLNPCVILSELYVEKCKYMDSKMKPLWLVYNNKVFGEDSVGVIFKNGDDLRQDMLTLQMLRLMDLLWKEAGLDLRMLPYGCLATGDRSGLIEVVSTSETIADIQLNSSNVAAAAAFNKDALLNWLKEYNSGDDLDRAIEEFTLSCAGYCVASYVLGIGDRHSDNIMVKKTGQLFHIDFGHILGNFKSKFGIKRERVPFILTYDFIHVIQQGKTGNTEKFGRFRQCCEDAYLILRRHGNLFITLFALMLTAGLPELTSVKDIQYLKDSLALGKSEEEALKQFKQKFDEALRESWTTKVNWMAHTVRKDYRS
T2 sequence (P27986 whole entry partner): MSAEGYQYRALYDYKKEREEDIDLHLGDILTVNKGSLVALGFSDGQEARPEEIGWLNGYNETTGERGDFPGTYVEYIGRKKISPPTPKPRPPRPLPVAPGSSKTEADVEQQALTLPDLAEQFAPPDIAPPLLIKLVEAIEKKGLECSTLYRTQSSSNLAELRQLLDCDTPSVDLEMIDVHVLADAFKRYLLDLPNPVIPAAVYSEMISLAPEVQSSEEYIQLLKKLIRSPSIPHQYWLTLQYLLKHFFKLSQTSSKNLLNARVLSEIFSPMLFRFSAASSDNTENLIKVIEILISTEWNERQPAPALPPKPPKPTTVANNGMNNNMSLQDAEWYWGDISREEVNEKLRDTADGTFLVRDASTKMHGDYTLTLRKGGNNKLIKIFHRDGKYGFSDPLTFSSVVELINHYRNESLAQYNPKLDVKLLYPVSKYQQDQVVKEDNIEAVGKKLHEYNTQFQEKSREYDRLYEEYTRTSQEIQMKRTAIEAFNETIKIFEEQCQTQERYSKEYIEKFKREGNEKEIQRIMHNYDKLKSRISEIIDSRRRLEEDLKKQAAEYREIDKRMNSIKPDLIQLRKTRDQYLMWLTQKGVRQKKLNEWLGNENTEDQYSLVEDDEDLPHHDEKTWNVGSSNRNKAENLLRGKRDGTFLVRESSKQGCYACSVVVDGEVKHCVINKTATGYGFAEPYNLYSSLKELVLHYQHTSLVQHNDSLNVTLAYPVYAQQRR
T3 sequence (P48736 whole entry): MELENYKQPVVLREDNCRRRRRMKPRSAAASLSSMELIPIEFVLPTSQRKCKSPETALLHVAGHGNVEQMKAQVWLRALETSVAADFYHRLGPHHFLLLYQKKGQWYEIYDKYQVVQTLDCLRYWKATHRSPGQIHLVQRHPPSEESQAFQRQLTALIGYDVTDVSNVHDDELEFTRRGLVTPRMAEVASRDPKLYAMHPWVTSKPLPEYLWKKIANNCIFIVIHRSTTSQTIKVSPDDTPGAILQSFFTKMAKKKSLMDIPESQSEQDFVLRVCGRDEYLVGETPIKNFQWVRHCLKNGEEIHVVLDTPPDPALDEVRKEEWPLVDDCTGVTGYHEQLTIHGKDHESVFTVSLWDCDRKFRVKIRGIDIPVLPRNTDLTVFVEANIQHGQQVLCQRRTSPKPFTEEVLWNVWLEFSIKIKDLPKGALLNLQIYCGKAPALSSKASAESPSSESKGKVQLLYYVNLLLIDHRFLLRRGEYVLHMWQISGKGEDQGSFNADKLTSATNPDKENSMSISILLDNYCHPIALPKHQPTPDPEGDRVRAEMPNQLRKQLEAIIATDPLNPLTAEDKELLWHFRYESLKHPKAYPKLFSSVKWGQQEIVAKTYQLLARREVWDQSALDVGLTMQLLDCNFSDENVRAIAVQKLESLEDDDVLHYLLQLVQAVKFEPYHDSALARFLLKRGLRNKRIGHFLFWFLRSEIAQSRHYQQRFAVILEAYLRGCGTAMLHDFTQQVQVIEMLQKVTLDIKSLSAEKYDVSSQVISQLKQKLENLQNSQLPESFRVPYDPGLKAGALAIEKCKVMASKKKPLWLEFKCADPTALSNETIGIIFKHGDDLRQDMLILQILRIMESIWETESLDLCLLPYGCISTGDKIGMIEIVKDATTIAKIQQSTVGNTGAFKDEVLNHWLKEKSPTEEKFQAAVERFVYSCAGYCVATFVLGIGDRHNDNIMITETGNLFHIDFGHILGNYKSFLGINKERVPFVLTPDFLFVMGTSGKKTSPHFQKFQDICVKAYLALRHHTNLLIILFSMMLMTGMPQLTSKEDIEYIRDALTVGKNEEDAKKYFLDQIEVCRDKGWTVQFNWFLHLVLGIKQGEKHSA
T1 sequence (P42336 whole entry): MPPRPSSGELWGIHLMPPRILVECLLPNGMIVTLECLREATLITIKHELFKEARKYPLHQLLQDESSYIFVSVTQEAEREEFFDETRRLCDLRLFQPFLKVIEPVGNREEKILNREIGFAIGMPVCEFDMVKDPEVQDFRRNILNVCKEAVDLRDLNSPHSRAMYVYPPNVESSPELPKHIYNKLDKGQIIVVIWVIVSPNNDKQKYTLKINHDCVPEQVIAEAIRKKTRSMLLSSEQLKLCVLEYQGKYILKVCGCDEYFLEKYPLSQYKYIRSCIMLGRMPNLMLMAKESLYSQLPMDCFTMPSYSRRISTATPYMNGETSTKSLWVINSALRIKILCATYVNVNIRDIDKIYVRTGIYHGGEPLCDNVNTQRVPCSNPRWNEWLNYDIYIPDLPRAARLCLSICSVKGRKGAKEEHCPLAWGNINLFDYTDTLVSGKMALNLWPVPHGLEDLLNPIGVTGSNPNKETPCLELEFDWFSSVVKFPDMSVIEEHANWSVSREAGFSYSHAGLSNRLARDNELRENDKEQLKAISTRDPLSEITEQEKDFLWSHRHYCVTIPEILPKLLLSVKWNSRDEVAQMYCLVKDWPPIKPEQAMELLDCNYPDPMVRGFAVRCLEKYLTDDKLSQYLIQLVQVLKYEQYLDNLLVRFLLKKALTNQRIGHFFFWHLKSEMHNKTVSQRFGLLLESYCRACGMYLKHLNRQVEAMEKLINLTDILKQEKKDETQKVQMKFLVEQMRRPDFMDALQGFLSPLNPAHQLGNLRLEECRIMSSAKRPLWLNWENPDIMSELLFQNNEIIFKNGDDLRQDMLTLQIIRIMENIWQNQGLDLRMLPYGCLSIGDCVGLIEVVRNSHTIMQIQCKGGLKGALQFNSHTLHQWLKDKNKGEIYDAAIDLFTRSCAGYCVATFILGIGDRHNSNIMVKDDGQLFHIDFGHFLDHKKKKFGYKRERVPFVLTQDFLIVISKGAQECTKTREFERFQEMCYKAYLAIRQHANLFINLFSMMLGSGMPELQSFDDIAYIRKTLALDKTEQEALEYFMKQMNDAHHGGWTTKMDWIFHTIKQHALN
T1 sequence (P27986 whole entry partner): as the sequence (P27986 whole entry partner) above
T4 sequence (O00329 whole entry): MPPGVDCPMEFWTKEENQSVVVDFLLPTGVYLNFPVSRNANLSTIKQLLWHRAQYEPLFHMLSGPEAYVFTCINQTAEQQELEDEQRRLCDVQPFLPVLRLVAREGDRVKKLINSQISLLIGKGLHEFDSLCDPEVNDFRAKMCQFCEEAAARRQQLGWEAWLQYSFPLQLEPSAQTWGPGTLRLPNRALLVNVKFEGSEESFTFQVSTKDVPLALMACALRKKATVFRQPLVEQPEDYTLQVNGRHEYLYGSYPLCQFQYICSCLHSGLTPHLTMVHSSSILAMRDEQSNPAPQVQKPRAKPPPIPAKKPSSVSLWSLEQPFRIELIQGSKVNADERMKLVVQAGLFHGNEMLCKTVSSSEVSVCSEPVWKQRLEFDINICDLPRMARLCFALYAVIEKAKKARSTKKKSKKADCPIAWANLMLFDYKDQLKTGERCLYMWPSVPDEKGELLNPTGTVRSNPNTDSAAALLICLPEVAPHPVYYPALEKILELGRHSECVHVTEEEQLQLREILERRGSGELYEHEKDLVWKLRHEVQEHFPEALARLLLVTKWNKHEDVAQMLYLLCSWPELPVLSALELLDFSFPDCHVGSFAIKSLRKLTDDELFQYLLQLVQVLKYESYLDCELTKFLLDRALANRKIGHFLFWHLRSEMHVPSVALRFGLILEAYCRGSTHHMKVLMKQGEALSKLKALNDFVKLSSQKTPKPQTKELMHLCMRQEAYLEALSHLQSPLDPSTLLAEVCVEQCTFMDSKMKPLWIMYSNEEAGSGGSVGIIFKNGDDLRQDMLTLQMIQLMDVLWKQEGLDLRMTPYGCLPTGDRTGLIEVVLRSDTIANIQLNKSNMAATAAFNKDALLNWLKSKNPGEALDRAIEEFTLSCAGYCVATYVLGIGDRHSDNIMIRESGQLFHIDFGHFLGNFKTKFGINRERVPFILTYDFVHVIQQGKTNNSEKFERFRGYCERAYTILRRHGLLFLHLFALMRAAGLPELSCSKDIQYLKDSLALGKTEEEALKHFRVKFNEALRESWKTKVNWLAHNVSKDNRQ
T4 sequence (P27986 whole entry partner): as the sequence (P27986 whole entry partner) above

Row | Compound | STING activation (interferon signal) (STING) | mIFNβ secretion [1] | M1 macrophage percentage among all the macrophages [2] | Macrophage polarization (TNFα secretion) [3] | BMDC activation (upregulation of CD80 and CD86) ([4]; 10 μM, FIG. 4) | mIFNβ secretion at different concentrations ([1]; BMDC, FIG. 7) | Inhibition of PI3Kα (in words) (PI3Kα) | IC50 (PI3Kα) [nM] | Inhibition of PI3K β (in words) (PI3K β) | IC50 (PI3K β) [nM] | IC50 (PI3Kγ) [nM] | IC50 (PI3Kδ) [nM] | Macrophage polarization (M1 ratio) at different concentrations ([2]; FIG. 10) | Median survival [5] [days] | BMDC activation at different concentrations ([4]; FIG. 5) | Inhibition of PI3Kγ (in words) (PI3Kγ) | Inhibition of PI3Kδ (in words) (PI3Kδ)
1 | C[C@@H](NC(=O)c1c(N)nn2cccnc12)c1cc2cccc(-c3cn(CCOC(=O)[C@H](N)Cc4cn(C)c5ccccc45)nn3)c2c(=O)n1-c1ccccc1 [DMA01-173, 2-(4-(3-((R)-1-(2-aminopyrazolo[1,5-a]pyrimidine-3-carboxamido)ethyl)-1-oxo-2-phenyl-1,2-dihydroisoquinolin-8-yl)-1H-1,2,3-triazol-1-yl)ethyl 1-methyl-D-tryptophanate] | did not stimulate STING activation | cannot enhance mIFNβ secretion | mild effects on increasing M1 percentage | showed macrophage polarization effects compared to M2 control group | did not stimulate DC activation |  |  |  |  |  |  |  |  |  |  |  | 
2 | COc1cc2cc(C(=O)CCC(=O)OCCn3cc(-c4cccc5cc([C@@H](C)NC(=O)c6c(N)nn7cccnc67)n(-c6ccccc6)c(=O)c45)nn3)sc2cc1OC [DMA01-166, (R)-2-(4-(3-(1-(2-aminopyrazolo[1,5-a]pyrimidine-3-carboxamido)ethyl)-1-oxo-2-phenyl-1,2-dihydroisoquinolin-8-yl)-1H-1,2,3-triazol-1-yl)ethyl 4-(5,6-dimethoxybenzo[b]thiophen-2-yl)-4-oxobutanoate] | enhanced interferon signal compared to control and cGAMP group | higher mIFNβ secretion compared to MSA-2 | higher percentage of M1 macrophage compared to IPI-549, cGAMP, ADU and MSA-2 |  |  | dose independent BMDC activation effect | no effect | > 10000 | no effect | > 10000 | 349 | 1250 | dose independent macrophage polarization effect | 157.5 | dose independent BMDC activation effect |  | 
3 | CCCCC/C=C/C/C=C\CCCCCCCC(=O)OCCn1cc(-c2cccc3cc([C@@H](C)NC(=O)c4c(N)nn5cccnc45)n(-c4ccccc4)c(=O)c23)nn1 [DMA01-170, 2-(4-(3-((R)-1-(2-aminopyrazolo[1,5-a]pyrimidine-3-carboxamido)ethyl)-1-oxo-2-phenyl-1,2-dihydroisoquinolin-8-yl)-1H-1,2,3-triazol-1-yl)ethyl (9Z,12E)-octadeca-9,12-dienoate] |  |  | mild effects on increasing M1 percentage | showed macrophage polarization effects compared to M2 control group |  |  |  |  |  |  |  |  |  |  |  |  | 
4 | CCOC(=O)Cn1cc(-c2cccc3cc([C@H](C)NC(=O)c4c(N)nn5cccnc45)n(-c4ccccc4)c(=O)c23)nn1 [DMA01-132] |  |  |  |  |  |  |  | 372 |  | 374 | 0.845 | 0.381 |  |  |  | inhibited both PI3Kγ and PI3Kδ | inhibited both PI3Kγ and PI3Kδ
5 | C[C@H](NC(=O)c1c(N)nn2cccnc12)c1cc2cccc(-c3cn(CCO)nn3)c2c(=O)n1-c1ccccc1 [DMA01-148] |  |  |  |  |  |  |  | 1050 |  | 548 | 0.864 | 15.4 |  |  |  | selectively inhibited PI3Kγ, with similar efficacy compared to IPI-549 | 
6 | C[C@H](NC(=O)c1c(N)nn2cccnc12)c1cc2cccc(-c3cn(CC(=O)O)nn3)c2c(=O)n1-c1ccccc1 [DMA01-143, (S)-2-(4-(3-(1-(2-aminopyrazolo[1,5-a]pyrimidine-3-carboxamido)ethyl)-1-oxo-2-phenyl-1,2-dihydroisoquinolin-8-yl)-1H-1,2,3-triazol-1-yl) acetic acid] |  |  |  |  |  |  |  | 409 |  | 312 | 5.34 | 1.36 |  |  |  | inhibited both PI3Kγ and PI3Kδ | inhibited both PI3Kγ and PI3Kδ
